{
  "source": "patent US20020169126A1",
  "about": "“Compositions and methods for inactivating the Akt oncogene and/or activating the p38 pro-apoptotic gene” (priority 2001, published 2002)",
  "key": {"[1]": {"tested_on": "Akt", "experiment": "Relative Akt activity (Akt-p versus Akt-c) after blocking p38", "format": "cell-based, human", "details": "20 μM, 8 hours, E1A stable expressing MDA-MB-231 cells", "description": "(§1) In order to determine the relationships between the Akt pathway and the p38 pathway, experiments were performed with inhibitors of both pathways. Wortmannin was used to inhibit the Akt pathway. Wortmannin is a drug that inhibits P13K which is a signal protein that is directly upstream of Akt in the Akt pathway. A synthetic compound, SB203580, was used as a p38 specific inhibitor. Cells were serum starved overnight and were then treated with either SB203580 (20 μM) or Wortmannin (0.1 μM) for 4 hours, 8, hours, 16 hours, 24 hours, 36 hours. When p38 activity was blocked by SB203580 for 8 hours, the Akt activity was increased by approximately 3 fold in E1A stable expressing MDA-MB-231 cells. Whereas, when Akt activity was blocked by Wortmannin for 4 hours, the p38 activity was enhanced to approximately 6 fold. The relative p38 activity (p38-p versus p38-c) and relative Akt activity (Akt-p versus Akt-c) are illustrated in FIG. 2A and FIG. 2B respectively."}, "[2]": {"tested_on": "breast cancer cells", "experiment": "Sensitization to Taxol-mediated cytotoxicity", "format": "cell-based, human", "details": "blocking p38 activity, together with constitutively active Akt", "description": "The indirect measure of the viable cells after exposure to Taxol using the metabolic conversion of tetrazolium salt (MTT) to formazan was used. Cells (3×10^3/well) were seeded in triplicate in 96-well culture plates in 0.2 ml of culture medium and allowed to adhere for 24 h. After exposure to Taxol for a certain period of time, 20 μl of MTT was then added to each well. Cells were cultured for an additional 2 h, and followed by addition of 100 μl of extraction buffer (20% SDS in 50% N,N-dimethyl formamide, pH 4.7). The cells were incubated overnight at 37° C., and the plates were absorbance at 570 nm was measured."}, "[3]": {"details": "cited from earlier work; for absorption: oral; for dose excreted or recovered in the urine: unchanged, intact or active drug"}, "[4]": {"details": "oral and parental routes; cited from earlier work"}, "[5]": {"tested_on": "MDA-MB-231 cells", "experiment": "Taxol treatment of 231 vector and 231-E1A tumors in nude mice", "format": "in vivo", "text": "To establish orthotopic breast cancer model in nude mice, human MDA-MB-231 cells were inoculated into the mammary fat pad (m.f.p.) of mouse. Tumor size were monitored and caculated on a weekly basis.\nExpression of E1A enhanced the anti-tumor effect of the chemotherapeutic drug Taxol in nude mice in vivo and prolonged animal survival rate. […] TUNEL labeling of apoptotic cells in the tumor tissues with or without treatment of Taxol also confirms this. The treatment groups included the SN vehicle, SN-liposome-E1A, Taxol alone, and Taxol plus SN-E1A. At least 7 animals were included in each group."}, "[6]": {"tested_on": "p38", "experiment": "Relative p38 activity (p38-p versus p38-c) after blocking Akt", "format": "cell-based, human", "details": "0.1 μM, 4 hours", "description": "as §1"}},
  "note": "Where a name gives a salt, the structure may show the parent alone. Starred links: 1 amine or outer side, 2 acyl side, 3 side chain; linkers in the order of their positions; H or OH if unused. Positions of bridges follow the written chain, without caps; N, C: chain ends. Non-standard residues stand in square brackets, D forms with d. Residues, ends and D or L forms follow the SMILES beside them. Chains are numbered I, II in the order given. Actinocin(9to1) = Cc1c2oc3c(C)ccc(C(=O)[*:1])c3nc-2c(C(=O)[*:2])c(N)c1=O; NMeV = CN[C@H](C(=O)O)C(C)C; Sar = CNCC(=O)O",
  "data": [
    {"compound": "C[S+]([O-])c1ccc(-c2nc(-c3ccncc3)c(-c3ccc(F)cc3)[nH]2)cc1", "note": "(stereo not shown) [SB203580]", "values": [
      {"measurement": "increase of Akt activity", "setting": "[1]", "value": "approximately 3 fold"},
      {"measurement": "effect on the ability of E1A to sensitize cells to Taxol-mediated cytotoxicity", "setting": "[2]", "value": "partially abrogated"}
    ]},
    {"compound": "CC[C@]1(O)C[C@@H]2CN(CCc3c([nH]c4ccccc34)[C@@](C(=O)OC)(c3cc4c(cc3OC)N(C)[C@H]3[C@@](O)(C(=O)OC)[C@H](OC(C)=O)[C@]5(CC)C=CCN6CC[C@]43[C@@H]65)C2)C1", "note": "[Vinblastine]", "values": [
      {"measurement": "absorption", "setting": "[3]", "value": "Unpredictable absorption"},
      {"measurement": "dose excreted or recovered in the urine", "setting": "[3]", "value": "Approximately 15%"}
    ]},
    {"compound": "O=P1(N(CCCl)CCCl)NCCCO1", "note": "(stereo not shown) [Cyclophosphamide, 2H -1,3,2-Oxazaphosphorin-2-amine, N,N-bis(2-chloroethyl)tetrahydro-, 2-oxide, monohydrate]", "values": [
      {"measurement": "local tolerance", "setting": "[4]", "value": "does not cause local vesication, necrosis, phlebitis or even pain"}
    ]},
    {"compound": "COc1cccc2c1C(=O)c1c(O)c3c(c(O)c1C2=O)C[C@@](O)(C(C)=O)C[C@@H]3O[C@H]1C[C@H](N)[C@H](O)[C@H](C)O1", "note": "[Daunorubicin, 5,12-Naphthacenedione, (8S-cis)-8-acetyl-10-[(3-amino-2,3,6-trideoxy-a-L-lyxo-hexanopyranosyl)oxy]-7,8,9,10-tetrahydro-6,8,11-trihydroxy-10-methoxy-, hydrochloride]", "values": [
      {"measurement": "absorption", "setting": "[3]", "value": "poor"}
    ]},
    {"compound": "CC[C@]1(O)C[C@H]2CN(CCc3c([nH]c4ccccc34)[C@@](C(=O)OC)(c3cc4c(cc3OC)N(C=O)[C@H]3[C@@](O)(C(=O)OC)[C@H](OC(C)=O)[C@]5(CC)C=CCN6CC[C@]43[C@@H]65)C2)C1", "note": "[Vincristine]", "values": [
      {"measurement": "absorption", "setting": "[3]", "value": "Unpredictable absorption"}
    ]},
    {"compound": "CC(=O)O[C@H]1C(=O)[C@@]2(C)[C@H]([C@H](OC(=O)c3ccccc3)[C@]3(O)C[C@H](OC(=O)[C@H](O)[C@@H](NC(=O)c4ccccc4)c4ccccc4)C(C)=C1C3(C)C)[C@]1(OC(C)=O)CO[C@@H]1C[C@@H]2O", "note": "[Taxol]", "values": [
      {"measurement": "therapeutic effect of Taxol in E1A tumors versus vector tumors", "setting": "[5]; 231-E1A cells", "value": "more dramatic therapeutic effect"},
      {"measurement": "tumor growth under Taxol treatment", "setting": "[5]; 231 vector and 231-E1A tumors", "value": "repressed tumor growth"}
    ]},
    {"compound": "COC[C@H]1OC(=O)c2coc3c2[C@@]1(C)C1=C(C3=O)[C@@H]2CCC(=O)[C@@]2(C)C[C@H]1OC(C)=O", "note": "[Wortmannin]", "values": [
      {"measurement": "enhancement of p38 activity", "setting": "[6]", "value": "approximately 6 fold"}
    ]},
    {"compound": "O=C(O)CCCc1ccc(N(CCCl)CCCl)cc1", "note": "[Chlorambucil, 4-[bis(2-chlorethyl)amino] benzenebutanoic acid]", "values": [
      {"measurement": "absorption", "setting": "[3]", "value": "rapidly and completely absorbed from the gastrointestinal tract"}
    ]},
    {"compound": "Cc1c2oc3c(C)ccc(C(=O)N[C@@H]4C(=O)N[C@H](C(C)C)C(=O)N5CCC[C@H]5C(=O)N(C)CC(=O)N(C)[C@@H](C(C)C)C(=O)O[C@@H]4C)c3nc-2c(C(=O)N[C@@H]2C(=O)N[C@H](C(C)C)C(=O)N3CCC[C@H]3C(=O)N(C)CC(=O)N(C)[C@@H](C(C)C)C(=O)O[C@@H]2C)c(N)c1=O", "note": "[Actinomycin D] (I: T[dV]P[Sar][NMeV] / II: T[dV]P[Sar][NMeV]; ester I:1-I:C, II:1-II:C; linker I:N-II:N via Actinocin(9to1))", "values": [
      {"measurement": "excreted intact into the bile", "setting": "[3]; in vivo", "value": "Half of the dose"},
      {"measurement": "dose excreted or recovered in the urine", "setting": "[3]", "value": 10, "unit": "%"}
    ]},
    {"compound": "CO[C@@]12[C@H](COC(N)=O)C3=C(C(=O)C(C)=C(N)C3=O)N1C[C@@H]1N[C@@H]12", "note": "[Mitomycin]", "values": [
      {"measurement": "dose excreted or recovered in the urine", "setting": "[3]", "value": "Approximately 10%"}
    ]},
    {"compound": "N.N.[Cl][Pt][Cl]", "note": "[Cisplatin]", "values": [
      {"measurement": "absorption", "setting": "[3]", "value": "not absorbed orally"}
    ]},
    {"compound": "COc1cccc2c1C(=O)c1c(O)c3c(c(O)c1C2=O)C[C@@](O)(C(=O)CO)C[C@@H]3O[C@H]1C[C@H](N)[C@H](O)[C@H](C)O1", "note": "[Doxorubicin, 5,12-Naphthacenedione, (8s-cis)-10-[(3-amino-2,3,6-trideoxy-a-L-lyxo-hexopyranosyl)oxy]-7,8,9,10-tetrahydro-6,8,11-trihydroxy-8-(hydroxyacetyl)-1-methoxy-hydrochloride]", "values": [
      {"measurement": "absorption", "setting": "[3]", "value": "absorbed poorly"}
    ]}
  ]
}
